pEC50: −log10 of the molar value. Several values for one entry are separate records, joined by “and”; a condition that tells them apart may be missing. Identical values can stand only once.

For test [1], the system named is LXR signaling pathway. Briefly: RT-qPCR of LXR target genes (SREBP-1c, ABCA1, ABCG8) in Huh-7 cells. It is filed as cell-based, human. As to conditions: 16 h. The procedure: Cells were treated as described in corresponding figure legends, then total RNA was extracted from cells or mouse livers using TRI Reagent (T9424, Sigma-Aldrich). Equal amounts of RNA from cells or mice receiving the same treatment were pooled were used for cDNA synthesis with oligo dT and reverse transcriptase MLV (Promega). Gene expression was analyzed by quantitative real-time PCR on a Stratagene Mx30005PTM Q-PCR Systems. The primers used were listed in Supplementary Tables 2–4. […]
pathway. a-c Huh-7 cells were treated with indicated compounds for 16 h and then harvested for total RNA isolation and RT-qPCR. Cells treated with LXR agonist T0901317 w ere used as positive controls. The relative mRNA levels of SREBP -1c (a), ABCA1 (b) and ABCG8 (c) were quantified . GAPDH was the reference gene. The relative mRNA level in DMSO-treated cells was defined as 1. Data are from 3 independent experiments and presented as mean ± SD.
(1 picture or pasted object on this page, not shown here)

Test [2] addresses T1, HMGCR (TM1-8)-GFP (Cricetulus griseus, UniProt P00347).
T1 sequence (P00347 1-346): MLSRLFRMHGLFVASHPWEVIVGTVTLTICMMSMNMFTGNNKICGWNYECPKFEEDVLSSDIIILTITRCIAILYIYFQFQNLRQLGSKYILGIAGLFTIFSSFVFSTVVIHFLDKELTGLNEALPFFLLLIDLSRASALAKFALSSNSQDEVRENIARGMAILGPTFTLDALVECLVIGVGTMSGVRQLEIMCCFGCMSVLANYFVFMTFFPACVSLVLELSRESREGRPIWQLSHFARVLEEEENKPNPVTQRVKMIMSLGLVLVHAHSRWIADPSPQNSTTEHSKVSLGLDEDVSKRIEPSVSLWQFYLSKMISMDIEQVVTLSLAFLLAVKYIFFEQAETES
Briefly: HMGCR (TM1-8)-GFP fluorescent assay (high-content imaging) in CHG cells. As to conditions: 16 h, DMSO-treated cells = 100.

Test [3] addresses T1, HMGCR (TM1-8)-GFP.
The target of another test is T2, HMGCR (Cricetulus griseus, UniProt P00347).
T2 construct: endogenous in cells; host or cells: CHO-7, CHG, SRD-13A, SRD-15
T2 sequence (P00347 1-887): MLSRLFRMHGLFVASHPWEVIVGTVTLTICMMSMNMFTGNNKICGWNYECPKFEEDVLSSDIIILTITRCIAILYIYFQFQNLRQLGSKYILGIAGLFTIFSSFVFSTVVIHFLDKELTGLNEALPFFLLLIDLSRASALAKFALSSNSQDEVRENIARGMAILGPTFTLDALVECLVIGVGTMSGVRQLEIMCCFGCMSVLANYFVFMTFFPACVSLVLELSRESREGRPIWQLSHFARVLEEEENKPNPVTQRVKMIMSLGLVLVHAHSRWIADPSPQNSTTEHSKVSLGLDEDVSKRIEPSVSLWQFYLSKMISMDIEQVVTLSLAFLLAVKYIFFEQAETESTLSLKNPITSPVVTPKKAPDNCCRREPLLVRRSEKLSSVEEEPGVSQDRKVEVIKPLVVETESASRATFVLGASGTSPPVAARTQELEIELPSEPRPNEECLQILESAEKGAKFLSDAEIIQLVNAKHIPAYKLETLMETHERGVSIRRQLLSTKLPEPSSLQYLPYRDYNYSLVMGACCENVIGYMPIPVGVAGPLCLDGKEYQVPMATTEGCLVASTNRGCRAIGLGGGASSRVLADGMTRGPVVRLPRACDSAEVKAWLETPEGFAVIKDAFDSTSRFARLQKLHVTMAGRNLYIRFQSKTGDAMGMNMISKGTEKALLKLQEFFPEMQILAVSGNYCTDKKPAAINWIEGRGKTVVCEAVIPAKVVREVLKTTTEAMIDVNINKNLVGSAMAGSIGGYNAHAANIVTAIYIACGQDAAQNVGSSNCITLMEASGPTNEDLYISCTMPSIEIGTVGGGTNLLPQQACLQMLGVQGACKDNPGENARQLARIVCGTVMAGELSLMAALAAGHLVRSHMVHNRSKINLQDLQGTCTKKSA
Briefly: Immunoblotting of endogenous HMGCR protein in CHO-7 (or CHG) cells. It is filed as cell-based, Chinese hamster. The settings on record: 16 h; for endogenous HMGCR protein level (immunoblot), mean: CHG cells, DMSO = 100. The procedure: CHO-7 (Chinese hamster ovary cell, a clone of CHO-K1 cell line selected for growth in LPDS) and Huh7 (a human hepatocellular carcinoma cell line), SRD-13A (a Scap-deficient CHO-7 cell line) and SRD-15 (an Insig-1 and Insig-2-deficient CHO-7 cell line) were generous gifts from Russell Debose-Boyd at UT Southwestern Medical Center, USA. All cells were grown in a monolayer at 37 °C with 5% CO2. Huh7 cells were maintained in medium A supplemented with 10% FBS. CHO-7 and SRD-15 cells were maintained in medium B supplemented with 5% FBS. SRD-13A cells were maintained in medium B with 5% FBS, 5 μg ml^−1 cholesterol, 1 mM sodium mevalonate, 10 μM sodium oleate. No cell lines used in this study were found in the database of commonly misidentified cell lines that is maintained by ICLAC and NCBI Biosample. The cell lines have not been authenticated recently. No test for mycoplasma contamination was performed.
(§1) Cells were harvested and homogenized in the RIPA buffer (50 mM Tris-HCl, pH 8.0, 150 mM NaCl, 2 mM MgCl2, 1.5% NP-40, 0.1% SDS, and 0.5% sodium deoxycholate) supplemented with protease cocktail inhibitor, 10 μM MG-132, 10 μg ml^−1 leupeptin and 1 mM phenylmethylsulfonyl fluoride. The protein concentrations of lysates were determined using BCA method (Beyotime). Samples were mixed with the membrane protein solubilization buffer (62.5 mM Tris-HCl, pH 6.8, 15% SDS, 8 M urea, 10% glycerol, and 100 mM DTT) plus the 4× loading buffer (150 mM Tris-HCl, pH 6.8, 12% SDS, 30% glycerol, 6% 2-mercaptoethanol, and 0.02% bromophenol blue) and incubated for 30 min at 37 °C. Proteins were resolved by SDS-PAGE and transferred to nitrocellulose membranes (GE Healthcare). Immnoblots were blocked with 5% non-fat milk in TBS containing 0.075% Tween-20 (TBST) and probed with indicated antibodies overnight at 4 °C. After washing in TBST for five times, blots were incubated with HRP-conjugated secondary antibodies for 2 h at room temperature. Immunoreactivity was developed with Clarity Western ECL chemiluminescent substrates (170–5061, Bio-Rad). Western blot images were captured by Amersham Imager 600 (GE Healthcare), and integrated optical intensities of each band were quantified by Image-Pro Plus 6 software (Media Cybernetics). Uncropped blots are shown in Supplementary Figs. 9–13.
For orientation: Immunoblotting shows a protein as a band on a membrane.

In test [4] the target is T1, HMGCR (TM1-8)-GFP. Briefly: Immunoblotting of overexpressed HMGCR (TM1-8)-GFP in CHG cells. It is filed as cell-based, hamster. More on the design: corresponding to the amino acids from 1 to 346 of hamster HMGCR; expressed in transfected cells. As to conditions: 16 h, DMSO = 100. The procedure:
Fig. 2 A reporting system that measures HMGCR degradation. a Schematic of the HMGCR (TM1-8)-GFP fusion protein. […] Data are from three independent experiments and presented as mean ± SD. Source data are provided as a Source Data File.
as §1

The test system of test [5] is LXR signaling pathway. More on the design: method as in earlier work. As to conditions: previous studies ref 2 (Yang, C. et al. J. Biol. Chem. 281, 27816-27826 (2006)); cited from earlier work.

For orientation: pEC50 means −log10 of the EC50, conventionally taken in molar units. For the molecule `CC(C)CCC[C@@H](C)[C@H]1CC[C@@]2(C)C3=C(CC[C@]12C)[C@@]1(C)CC[C@H](O)C(C)(C)[C@@H]1CC3` [24,25-DHL, 24,25-dihydrolanosterol, reference compound], the “expression of LXR target genes (SREBP-1c, ABCA1 and ABCG8) mRNA” value with LXR signaling pathway [1] is “did not activate the LXR target genes”. Also, the “HMGCR (TM1-8)-GFP fluorescent intensity, mean” value on HMGCR (TM1-8)-GFP [2] (0.001 uM) turned out to be 100; at HMGCR (TM1-8)-GFP [2] (0.0078 uM), 100.168; at HMGCR (TM1-8)-GFP [2] (0.023 uM) it was 100; on HMGCR (TM1-8)-GFP [2] (0.078 uM) it was 97.2588; at HMGCR (TM1-8)-GFP [2] (0.234 uM) it was 80.6542; at HMGCR (TM1-8)-GFP [2] (2.34 uM), 45.713. Besides, the “HMGCR (TM1-8)-GFP fluorescent intensity, mean” value came out at 10.4985 at HMGCR (TM1-8)-GFP [2] (15.6 uM) and 5 on HMGCR (TM1-8)-GFP [2] (31.2 uM). The pEC50 at HMGCR (TM1-8)-GFP [3] is ~5.82 and 5.82; on HMGCR (CHO-7 cells, read-out: EC50 to decrease endogenous HMGCR (dose–response immunoblotting)) it was 5.80. The “endogenous HMGCR protein level (immunoblot), mean” value is recorded as 73.3548 on HMGCR (0.3 uM), 35.9866 on HMGCR (1 uM) and 7.195 at HMGCR (3 uM). In addition, the figures for the “overexpressed HMGCR (TM1-8)-GFP protein level (anti-GFP immunoblot), mean” value at HMGCR (TM1-8)-GFP [4] (0.3 uM), at HMGCR (TM1-8)-GFP [4] (1 uM) and at HMGCR (TM1-8)-GFP [4] (3 uM) were 87.2697, 51.2487 and 6.898, respectively. Further, the “activation of LXR” value with LXR signaling pathway [5] was “no effect”.
